Experimental data taken from PMC6136390, “Coptisine-induced inhibition of Helicobacter pylori: elucidation of specific mechanisms by probing urease active site and its maturation process” (Journal of Enzyme Inhibition and Medicinal Chemistry, 2018).
Where two headings read alike, the source gives them in different places.

Tested on: H. pylori strains
Experiment: Minimal inhibitory concentration assay (agar dilution)
Format: cell-based, Helicobacter pylori
Excerpt: Fourteen H. pylori strains were used in this study. NCTC 11637 and NCTC 26695 strains were purchased from American Type Culture Collection. Sydney Strain-1 (SS1) was kindly provided by Prof. Richard Ferrero of Monash University, Australia. Clinical isolate ICDC 111001 was provided by Prof. Zhang Jian-zhong of the Chinese Center for Disease Control and Prevention, China. Ten clinical isolates (Hp1868, Hp1869, Hp1870, Hp1871, Hp1872, Hp1873, Hp1874, Hp1875, Hp1876, and Hp1877) were obtained from Renji Hospital, Shanghai Jiaotong University.
All strains were cultured in Columbia agar base containing 7% sheep blood at 37 °C in a micro-aerophilic environment (5% O2, 10% CO2, and 85% N2). After 3 days, H. pylori was scraped and suspended in phosphate buffered saline (PBS). Turbidimetry was employed to adjust the concentrations of different H. pylori strains (turbidity equivalent to 1.0 McFarland standard). Crude HPU was obtained according to the method described by Matsubara et al.[42]
In this study, different concentrations (12.5, 25, 50, and 100 μg/mL) of berberine, palmatine, epiberberine, jatrorrhizine, and coptisine were used to evaluate antimicrobial activity against the standard H. pylori strain NCTC 11637. The agar dilution method was then used to analyse the antibacterial effects of coptisine against two H. pylori standard strains (SS1 and NCTC 26695) and eleven clinical isolates (ICDC 111001, HP 1868, HP 1869, HP 1870, HP 1871, HP 1872, HP 1873, HP 1874, HP 1875, HP 1876, and HP 1877). In this assay, 100 μL of H. pylori suspension (McFarland = 1.0) was added to the test compound-containing or DMSO-containing (control) Columbia blood agar plate. CLR and MET were used as positive controls in this experiment. Minimum inhibitory concentration (MIC) was defined as the lowest concentration at which no strain growth was observed by visual examination after 3 days. This experiment was repeated twice.

Molecule `c1c2c(cc3c1OCO3)-c1cc3ccc4c(c3c[n+]1CC2)OCO4` [Coptisine] has an MIC (Helicobacter pylori, NCTC11637, pH 7.2, standard strain NCTC 11637, pH 7.2) of 25 µg/mL, an MIC (Helicobacter pylori, NCTC26695, strain NCTC 26695, pH = 7.2) of 25 µg/mL and an MIC (Helicobacter pylori, clinical isolate HP 1868, pH = 7.2) of 50 µg/mL. For the same molecule, the MIC (Helicobacter pylori, clinical isolate HP 1869 (MET resistance), pH = 7.2) was 50 µg/mL, the MIC (Helicobacter pylori, clinical isolate HP 1870 (CLR and MET resistance), pH = 7.2) was 25 µg/mL and the MIC (Helicobacter pylori, clinical isolate HP 1871 (MET resistance), pH = 7.2) was 25 µg/mL. For the same molecule, the MIC (Helicobacter pylori, clinical isolate HP 1872, pH = 7.2) was 25 µg/mL, the MIC (Helicobacter pylori, clinical isolate HP 1873, pH = 7.2) was 50 µg/mL and the MIC (Helicobacter pylori, clinical isolate HP 1874, pH = 7.2) was 50 µg/mL. For the same molecule, the MIC (Helicobacter pylori, clinical isolate HP 1875, pH = 7.2) was 50 µg/mL, the MIC (Helicobacter pylori, clinical isolate HP 1876 (CLR and MET resistance), pH = 7.2) was 50 µg/mL and the MIC (Helicobacter pylori, clinical isolate HP 1877, pH = 7.2) was 50 µg/mL. For the same molecule, the MIC (Helicobacter pylori, clinical isolate ICDC 111001, pH = 7.2) was 25 µg/mL, the MIC (Helicobacter pylori, read-out: MICs against eleven clinical isolates, eleven clinical isolates from three sites in China) was 25 to 50 µg/mL and the MIC (Helicobacter pylori, strain SS1, pH = 7.2) was 25 µg/mL. It also gave an MIC (clinical isolate HP 1869 (MET resistance), pH = 7.2) of 50 µg/mL, an MIC (clinical isolate HP 1870 (CLR and MET resistance), pH = 7.2) of 25 µg/mL and an MIC (clinical isolate HP 1871 (MET resistance), pH = 7.2) of 25 µg/mL. For the same molecule, the MIC (clinical isolate HP 1876 (CLR and MET resistance), pH = 7.2) was 50 µg/mL, the MIC (standard strain NCTC 11637, pH 7.2) was 25 µg/mL and the MIC (strain NCTC 26695, pH = 7.2) was 25 µg/mL. The MIC (strain SS1, pH = 7.2) was 25 µg/mL.
